# Results published in BindingDB's records for doi:10.1111/j.1476-5381.1995.tb14977.x (Syntex Discovery Research, 1995).
# Where “and” joins values, the source holds several entries; their conditions need not be identical. Identical values can stand only once.
# Key:
# [1] = target: 5-hydroxytryptamine receptor 2B (Homo sapiens, UniProt P41595)
# [2] = target: T1, 5-hydroxytryptamine receptor 2C (Homo sapiens, UniProt P28335)
# T1 sequence (P28335 whole entry): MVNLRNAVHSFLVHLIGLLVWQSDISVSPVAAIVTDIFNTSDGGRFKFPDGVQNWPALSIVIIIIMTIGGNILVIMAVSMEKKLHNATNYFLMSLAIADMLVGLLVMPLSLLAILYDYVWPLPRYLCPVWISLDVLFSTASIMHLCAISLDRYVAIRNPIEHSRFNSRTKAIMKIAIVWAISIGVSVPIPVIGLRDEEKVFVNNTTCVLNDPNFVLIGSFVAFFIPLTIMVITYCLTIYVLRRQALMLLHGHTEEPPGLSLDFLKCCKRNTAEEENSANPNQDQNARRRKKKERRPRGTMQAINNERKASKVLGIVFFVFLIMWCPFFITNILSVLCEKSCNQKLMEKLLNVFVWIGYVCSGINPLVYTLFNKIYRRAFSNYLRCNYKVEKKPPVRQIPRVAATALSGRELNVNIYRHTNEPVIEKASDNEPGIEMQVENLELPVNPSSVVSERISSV
# [3] = target: T2, 5-hydroxytryptamine receptor 2C (Rattus norvegicus, UniProt P08909)
# T2 sequence (P08909 whole entry): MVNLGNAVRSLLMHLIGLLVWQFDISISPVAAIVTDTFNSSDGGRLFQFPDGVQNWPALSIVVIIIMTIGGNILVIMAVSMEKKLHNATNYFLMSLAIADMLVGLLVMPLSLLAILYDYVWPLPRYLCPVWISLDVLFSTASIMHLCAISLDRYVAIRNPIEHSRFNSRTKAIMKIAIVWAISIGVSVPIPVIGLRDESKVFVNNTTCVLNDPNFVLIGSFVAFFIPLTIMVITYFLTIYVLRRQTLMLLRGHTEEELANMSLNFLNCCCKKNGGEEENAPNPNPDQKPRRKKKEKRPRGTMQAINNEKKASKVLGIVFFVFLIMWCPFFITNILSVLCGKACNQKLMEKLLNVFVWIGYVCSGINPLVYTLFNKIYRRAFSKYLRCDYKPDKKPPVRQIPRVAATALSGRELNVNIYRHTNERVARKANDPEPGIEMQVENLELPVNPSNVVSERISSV
# [4] = target: 5-hydroxytryptamine receptor 2B (Rattus norvegicus, UniProt P30994)
# Chain of 5-hydroxytryptamine receptor 2B (Rattus norvegicus, UniProt P30994) (P30994 whole entry): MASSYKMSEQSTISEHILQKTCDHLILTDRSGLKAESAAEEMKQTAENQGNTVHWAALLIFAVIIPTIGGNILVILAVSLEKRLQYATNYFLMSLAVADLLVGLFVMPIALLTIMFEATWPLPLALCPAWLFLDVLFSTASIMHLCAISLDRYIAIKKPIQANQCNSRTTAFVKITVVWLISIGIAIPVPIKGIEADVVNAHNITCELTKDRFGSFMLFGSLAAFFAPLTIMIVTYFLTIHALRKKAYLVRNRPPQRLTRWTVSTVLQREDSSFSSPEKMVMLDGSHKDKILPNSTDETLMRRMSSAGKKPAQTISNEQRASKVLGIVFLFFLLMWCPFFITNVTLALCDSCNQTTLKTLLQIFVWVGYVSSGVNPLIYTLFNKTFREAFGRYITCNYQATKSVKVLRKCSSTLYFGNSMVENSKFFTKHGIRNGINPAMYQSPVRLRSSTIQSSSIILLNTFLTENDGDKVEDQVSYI
# Chain of 5-hydroxytryptamine receptor 2B (Homo sapiens, UniProt P41595) (P41595 whole entry): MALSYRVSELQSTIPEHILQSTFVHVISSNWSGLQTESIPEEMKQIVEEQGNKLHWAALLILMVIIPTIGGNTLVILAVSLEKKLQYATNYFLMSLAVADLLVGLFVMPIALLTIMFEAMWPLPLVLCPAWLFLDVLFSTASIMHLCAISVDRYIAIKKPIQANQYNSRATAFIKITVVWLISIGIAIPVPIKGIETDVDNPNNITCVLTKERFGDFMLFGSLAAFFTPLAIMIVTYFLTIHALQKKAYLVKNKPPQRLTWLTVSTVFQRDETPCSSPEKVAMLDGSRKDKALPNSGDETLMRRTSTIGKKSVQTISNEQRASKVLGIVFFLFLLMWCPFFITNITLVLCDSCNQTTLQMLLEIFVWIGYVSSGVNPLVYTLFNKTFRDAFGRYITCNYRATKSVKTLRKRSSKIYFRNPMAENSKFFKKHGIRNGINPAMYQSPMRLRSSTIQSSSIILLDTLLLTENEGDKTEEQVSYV
Structure (SMILES),Ki [1] [nM],Ki [2],Ki [3] [nM],Ki [4] [nM]
"O=C(CCCN1CCC2(CC1)C(=O)NCN2c1ccccc1)c1ccc(F)cc1 [8-[4-(4-fluorophenyl)-4-oxidanylidene-butyl]-1-phenyl-1,3,8-triazaspiro[4.5]decan-4-one]",1580,501 nM and 1000 nM,–,–
COC(=O)[C@@H]1[C@H]2C[C@H]3c4[nH]c5ccccc5c4CCN3C[C@@H]2CC[C@@H]1O [yohimbic acid methyl ester],–,–,> 10000,50.1
Cn1ccc2cc(NC(=O)Nc3cccnc3)ccc21 [SB 200646],631,501 nM,1000,–
"O=C(c1ccc(F)cc1)C1CCN(CCn2c(=O)[nH]c3ccccc3c2=O)CC1 [3-(2-{4-[(4-fluorophenyl)carbonyl]piperidin-1-yl}ethyl)-1,2,3,4-tetrahydroquinazoline-2,4-dione]",–,–,63.1,3980
Clc1cccc(N2CCNCC2)c1 [mCPP],–,–,126,25.1
Cc1nc2sccn2c(=O)c1CCN1CCC(=C(c2ccc(F)cc2)c2ccc(F)cc2)CC1,5.01,0.25 nM,–,–
CC[C@@H](CO)NC(=O)[C@@H]1C=C2c3cccc4c3c(cn4C)C[C@H]2N(C)C1,–,1.58 nM,1.99,–
